What was measured:
Details in all cases: main component drawn
S. aureus Newman [1] = test: fitness (endpoint OD595 vs no drug) (fraction); higher = more growth
Procedure, shortened: (§1)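 Growth medium was TSB, LB Lennox or CY, and plates were kept at 37 °C. Inoculation was at OD595 0.01 in 384-well plates, at 30 µl per well or 55 µl for S. pneumoniae. OD595 was monitored every 30 min for 14 h and background-subtracted using the first reading. Fitness is the optical density on entering stationary phase divided by the robust mean of no-drug controls, with values capped at 1.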

S. pneumoniae D39V [2] = test: as above
Procedure, shortened: as §1

B. subtilis 168 = test: Bliss interaction score (quartile over a dose matrix) (fitness difference); higher = more antagonism (negative = synergy)
Procedure, shortened: (§2)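 Quartiles summarise the Bliss score over technical, biological and donor/recipient replicates, where the score is observed minus expected fitness under a product model. Expected fitness uses single-drug values inferred from combination data. Fitness is OD595 at entry into stationary phase over the plate's robust no-drug mean, capped at 1.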

S. aureus DSM 20231 = test: as above
Procedure, shortened: as §2

S. aureus Newman [3] = test: as above
Procedure, shortened: as §2

S. pneumoniae D39V [4] = test: as above
Procedure, shortened: as §2
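Wherever Bliss interaction score (quartile over a dose matrix) is given: first quartile when negative (synergy) and third quartile when positive (antagonism).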

Compound: CNC(C)C1CCC(N)C(OC2C(N)CC(N)C(OC3OCC(C)(O)C(NC)C3O)C2O)O1 (stereo not drawn) [Gentamicin] + C/C(=C\C(=O)OCCCCCCCCC(=O)O)C[C@@H]1OC[C@H](C[C@@H]2O[C@H]2[C@@H](C)[C@H](C)O)[C@@H](O)[C@H]1O [Pseudomonic acid]
- fitness (S. aureus Newman [1]; first compound 1 µg/mL, partner 0.0313 µg/mL, one replicate): 0.0474
- fitness (S. aureus Newman [1]; first compound 1 µg/mL, partner 0.0625 µg/mL, one replicate): 0.0311
- fitness (S. aureus Newman [1]; first compound 1 µg/mL, partner 0.125 µg/mL, one replicate): 0.0416
- fitness (S. aureus Newman [1]; first compound 2 µg/mL, partner 0.0313 µg/mL, one replicate): 0.0502
- fitness (S. aureus Newman [1]; first compound 2 µg/mL, partner 0.0625 µg/mL, one replicate): 0.0417
- fitness (S. aureus Newman [1]; first compound 2 µg/mL, partner 0.125 µg/mL, one replicate): 0.0314
- fitness (S. aureus Newman [1]; first compound 4 µg/mL, partner 0.0313 µg/mL, one replicate): 0.0545
- fitness (S. aureus Newman [1]; first compound 4 µg/mL, partner 0.0625 µg/mL, one replicate): 0.0388
- fitness (S. aureus Newman [1]; first compound 4 µg/mL, partner 0.125 µg/mL, one replicate): 0.0572
- fitness (S. pneumoniae D39V [2]; first compound 2 µg/mL, partner 0.03 µg/mL): 0.922
- fitness (S. pneumoniae D39V [2]; first compound 2 µg/mL, partner 0.06 µg/mL): 0.727
- fitness (S. pneumoniae D39V [2]; first compound 2 µg/mL, partner 0.12 µg/mL): 0.396
- fitness (S. pneumoniae D39V [2]; first compound 4 µg/mL, partner 0.03 µg/mL): 0.923
- fitness (S. pneumoniae D39V [2]; first compound 4 µg/mL, partner 0.06 µg/mL): 0.769
- fitness (S. pneumoniae D39V [2]; first compound 4 µg/mL, partner 0.12 µg/mL): 0.393
- fitness (S. pneumoniae D39V [2]; first compound 8 µg/mL, partner 0.03 µg/mL): 0.881
- fitness (S. pneumoniae D39V [2]; first compound 8 µg/mL, partner 0.06 µg/mL): 0.673
- fitness (S. pneumoniae D39V [2]; first compound 8 µg/mL, partner 0.12 µg/mL): 0.323
- Bliss interaction score (B. subtilis 168): 0.0456
- Bliss interaction score (S. aureus DSM 20231): 0.0111
- Bliss interaction score (S. aureus Newman [3]): 0.0245
- Bliss interaction score (S. pneumoniae D39V [4]): -0.134

Compound: CNC(C)C1CCC(N)C(OC2C(N)CC(N)C(OC3OCC(C)(O)C(NC)C3O)C2O)O1 (stereo not drawn) [Gentamicin] + CCCCCCCCCC(=O)N[C@@H]1[C@H]([C@@H]([C@H](O[C@H]1OC2=C3C=C4C=C2OC5=C(C=C(C=C5)[C@H]([C@H]6C(=O)N[C@@H](C7=C(C(=CC(=C7)O)OC8[C@H]([C@H]([C@@H]([C@H](O8)CO)O)O)O)C9=C(C=CC(=C9)[C@H](C(=O)N6)NC(=O)[C@@H]4NC(=O)[C@@H]1C2=CC(=CC(=C2)OC2=C(C=CC(=C2)[C@H](C(=O)N[C@H](CC2=CC(=C(O3)C=C2)Cl)C(=O)N1)N)O)O)O)C(=O)O)O[C@H]1[C@@H]([C@H]([C@@H]([C@H](O1)CO)O)O)NC(=O)C)Cl)CO)O)O [Teicoplanin]
- fitness (S. aureus Newman [1]; first compound 0.375 µg/mL, partner 0.1562 µg/mL, one replicate): ≥ 1
- fitness (S. aureus Newman [1]; first compound 0.375 µg/mL, partner 0.3125 µg/mL, one replicate): ≥ 1
- fitness (S. aureus Newman [1]; first compound 0.375 µg/mL, partner 0.625 µg/mL, one replicate): 0.861
- fitness (S. aureus Newman [1]; first compound 0.5 µg/mL, partner 0.1562 µg/mL): ≥ 1
- fitness (S. aureus Newman [1]; first compound 0.5 µg/mL, partner 0.3125 µg/mL): ≥ 1
- fitness (S. aureus Newman [1]; first compound 0.5 µg/mL, partner 0.625 µg/mL): ≥ 1
- fitness (S. aureus Newman [1]; first compound 0.75 µg/mL, partner 0.1562 µg/mL, one replicate): ≥ 1
- fitness (S. aureus Newman [1]; first compound 0.75 µg/mL, partner 0.3125 µg/mL, one replicate): ≥ 1
- fitness (S. aureus Newman [1]; first compound 0.75 µg/mL, partner 0.625 µg/mL, one replicate): 0.851
- fitness (S. aureus Newman [1]; first compound 1 µg/mL, partner 0.1562 µg/mL): ≥ 1
- fitness (S. aureus Newman [1]; first compound 1 µg/mL, partner 0.3125 µg/mL): ≥ 1
- fitness (S. aureus Newman [1]; first compound 1 µg/mL, partner 0.62 µg/mL, one replicate): 0.748
- fitness (S. aureus Newman [1]; first compound 1 µg/mL, partner 0.625 µg/mL): ≥ 1
- fitness (S. aureus Newman [1]; first compound 1 µg/mL, partner 1.24 µg/mL, one replicate): 0.616
- fitness (S. aureus Newman [1]; first compound 1 µg/mL, partner 2.48 µg/mL, one replicate): 0.0707
- fitness (S. aureus Newman [1]; first compound 1.5 µg/mL, partner 0.1562 µg/mL, one replicate): ≥ 1
- fitness (S. aureus Newman [1]; first compound 1.5 µg/mL, partner 0.3125 µg/mL, one replicate): ≥ 1
- fitness (S. aureus Newman [1]; first compound 1.5 µg/mL, partner 0.625 µg/mL, one replicate): 0.875
- fitness (S. aureus Newman [1]; first compound 2 µg/mL, partner 0.1562 µg/mL): ≥ 1
- fitness (S. aureus Newman [1]; first compound 2 µg/mL, partner 0.3125 µg/mL): ≥ 1
- fitness (S. aureus Newman [1]; first compound 2 µg/mL, partner 0.62 µg/mL, one replicate): 0.37
- fitness (S. aureus Newman [1]; first compound 2 µg/mL, partner 0.625 µg/mL): ≥ 1
- fitness (S. aureus Newman [1]; first compound 2 µg/mL, partner 1.24 µg/mL, one replicate): 0.0206
- fitness (S. aureus Newman [1]; first compound 2 µg/mL, partner 2.48 µg/mL, one replicate): 0.0793
- fitness (S. aureus Newman [1]; first compound 4 µg/mL, partner 0.62 µg/mL, one replicate): 0.0704
- fitness (S. aureus Newman [1]; first compound 4 µg/mL, partner 1.24 µg/mL, one replicate): 0.0307
- fitness (S. aureus Newman [1]; first compound 4 µg/mL, partner 2.48 µg/mL, one replicate): 0.0765
- Bliss interaction score (B. subtilis 168): -0.13
- Bliss interaction score (S. aureus DSM 20231): -0.0694
- Bliss interaction score (S. aureus Newman [3]): -0.0337
- Bliss interaction score (S. pneumoniae D39V [4]): 0.0694
